Test results as given in patent US10183059B2, “Method for treating microbial infection” (GENERAL BIOLOGICALS CORPORATION, priority 2015, dated 2019).
No end group written: not given here.

How the values were obtained:
C. parapsilosis = type: cell-based
Description: (§1) The antimicrobial activities against clinical isolates and drug-resistant strains of P-113 and its derived peptides were examined. The present invention evaluated the effect of P-113 on 15 clinical isolates of fungi belonging to the genus Candida (see Table 1). Clinical isolates were cultivated overnight at 30° C. under shaking in a YPD cultural broth (1% yeast extract, 2% peptone and 2% glucose), cells were centrifuged and washed with YPD, then cultivated again in a YPD culture broth allowing to grow for 5 hours (initial optical density at 600 nm [OD600]˜0.5). Cells were washed with PBS and then collected by centrifugation, redissolved in a culture broth (modified RPMI 1640 medium, LYM), the cell concentration was adjusted to ˜0.1 [OD600]/ml and then treated with P-113. After the mixed solution was cultivated under shaking at 37° C. and 5% CO2 for 24 hours, absorbance measurement (OD value) was performed to determine the minimum inhibitory concentration (MIC).

C. dubliniensis = type: cell-based
Description: as §1

[1] = Circular dichroism secondary structure in 85% TFE, BeStSel analysis; type: physicochemical; conditions: CD analyzed by BeStSel
Description: The present invention utilized a Circular Dichroism Spectrometer (AVIV Company) to observe the secondary structure of the antimicrobial peptides. Circular dichoism spectra of P-113 and its derivatives were recorded over the wavelength range of 195-260 nm with readings every 1 nm by using a quartz cuvette having 1 mm optical path length. Ellipticities were represented as mean residue molar ellipticity (MRE). P-113, P-113Du and P-113Tri were dissolved in 85% trifluoroethanol (TFE) solution.

[2] = tested on: SC5314 strain of Candida albicans; assay: Effect of cell wall disrupting agents on peptide activity, CFU; type: cell-based; conditions: Proteinase K 1 mg/ml, 30 min
Description: The SC5314 strain of Candida albicans (wild type or WT) were grown overnight in YPD broth at 30° C. The overnight culture was then subcultured into fresh YPD medium and grown for 5 h. Cells were treated with Proteinase K (1 mg/ml) for 30 min or Zymolyase (5 mg/ml) for 1 h at 30° C., followed by reacting with different concentrations of the peptides for 1 h, respectively. After that, samples were serially diluted in phosphate-buffered saline (PBS) and 15 μl of each diluent was spotted onto YPD agar plates. Colony-forming units were counted after incubation at 30° C. for 24 h. The data were represented as the mean values±SD of three independent experiments.

[3] = tested on: Wild type (WT) Candida albicans; assay: Salt and pH tolerance of candidacidal activity; type: cell-based
Description: Wild type (WT) Candida albicans was cultivated in a YPD medium at 30° C. overnight and then transferred to 5 ml of fresh YPD culture broth, cultivated subsequently for another 5 hours. After the fungi were collected by centrifugation, washed with 12.5 mM sodium acetate twice, redissolved with 12.5 mM NaOAc to yield a fungal concentration of 1.5×10^6 cells/ml. Fifty microliters of liquid fungal suspension was taken out to mix with 50 μl of sequentially diluted antimicrobial peptides and placed in different wells of a 96-well plate allowing to react for 1 hour at 37° C. (as shown in FIG. 4(A). Then, 50 μl of liquid fungal mixture was taken out and 450 μl PBS was added to terminate the reaction. Finally, 25 μl was taken out and inoculated on a solid YPD medium.

och1Δ mutant strain = assay: Susceptibility of och1Δ mutant, CFU; type: cell-based, Candida albicans; conditions: och1Δ versus SN250, 1 h
Description: The SN250 and och1Δ mutant strains were grown overnight in YPD broth at 30° C. The overnight culture was then subcultured into fresh YPD medium and grown for 5 h. Cells were treated with different concentration of peptides for 1 h. After treatment, samples were serially diluted in PBS and 15 μl of each diluent was spotted onto YPD agar plates. Colony-forming units were counted after 24 h incubation at 30° C. The data were represented as the mean values±SD of three independent experiments.

[4] = tested on: Candida albicans strain SC5314 biofilms; assay: Biofilm cell viability, XTT reduction assay; type: cell-based; conditions: biofilm cells, 37° C., 1 hr
Description: Candida albicans strain SC5314 was cultivated in a YPD medium overnight and then transferred to a fresh YPD culture broth, diluted until the concentration was 3×10^5 cells/ml. 100 μl of liquid fungal suspension was placed in a 96-well plate for cultivation at 37° C. for 24 hours, formed biofilms were washed with sodium acetate (12.5 mM). Then, sequence-diluted antimicrobial peptides P-113, P-113Du and P-113Tri (0-200 μM) were added, reacted at 37° C. for 1 hour, washed with PBS twice. The cellular activity of the biofilms was determined by using XTT (2,3-bis(2-methoxy-4-nitro-5-sulfophenyl)-2H-tetrazolium-5-carboxanilide) reduction assays to analyze the cell survival rate. To perform this reaction, XTT (0.5 mg/ml) and Menadione (0.5 μM) were dissolved in PBS and then added into a 96-well plate formed by biofilms, reacted at 30° C. for 30 minutes, the optical density was measured at wavelength 490 nm (OD490). The cellular activity of the biofilms was represented as a percentage.

[5] = tested on: SC5314 strain of Candida albicans; assay: Intracellular ROS assay (DHE, MitoSOX Red, flow cytometry); type: cell-based; conditions: 0.25 μM, 1 h, 37° C.
Description: The SC5314 strain of Candida albicans (wild type or WT) were grown overnight in YPD broth at 30° C. The overnight culture was then subcultured into fresh YPD medium and grown for 5 h. Cells were harvested by centrifugation, washed twice with 12.5 mM sodium acetate (NaOAc) and resuspended in 12.5 mM NaOAc to a concentration of 1*10^7 cells/ml. The cells were treated with various AMPs (0.25 μM) for 1 h at 37° C. After treatment, cells were washed twice with 12.5 mM NaOAc. Dihydroethidium (DHE) is a superoxide indicator, and MitoSOX Red (MitoSOX) was introduced for selective detection of superoxide in the mitochondria of live cells. The intracellular ROS was measured using DHE (20 μM) staining for 30 min and MitoSOX Red (5 μM) for 60 min in PBS. Fluorescent detection was performed by flow cytometry.

[6] = tested on: Candida albicans strain SC5314; assay: Fungal suppression at various concentrations and reaction times, colony count; type: cell-based; conditions: 37° C., 12.5 mM NaOAc
Description: To examine the activity of P-113 for killing fungus, fungal suppression assays were carried out at various concentrations or reaction times. Candida albicans strain SC5314 (wild type, WT) was cultivated in the Yeast extract Peptone Dextrose medium (YPD medium) at 30° C. overnight, transferred to 5 ml of fresh YPD culture broth, and then cultivated again for another 5 hours. After fungi were collected by centrifugation, the fungi were washed with 12.5 mM sodium acetate (NaOAc) twice, redissolved in each well of a 96-well plate with 12.5 mM NaOAc (1.5×10^6 cells in 0.1 ml of 12.5 mM NaOAc). Then, the fungi were treated with different concentrations of P-113 for different reaction times at 37° C. Around […] of Phosphate-buffered saline (PBS) was added into each well, took 25 μl of liquid fungi suspension out and inoculated on a solid YPD medium, after being cultivated at 30° C. for 24 hours, the number of colonies were counted.

**Q.** Which “Minimum Inhibitory Concentration” value (C. parapsilosis) does the source give for “AKRHHGYKRKFH-NH2 [P-113, AKRHHGYKRKFH-NH2]” here?
**A.** 0.78 µg/mL

**Q.** What about the “Minimum Inhibitory Concentration” value (C. dubliniensis) of the same substance?
**A.** 6.25 µg/mL

**Q.** And the “content of the α-helical secondary structure” value [1]?
**A.** 2.9%

**Q.** What about the “candidacidal activity after proteinase K treatment of cells” value [2] of the same substance?
**A.** failed to kill C. albicans

**Q.** And the candidacidal activity ([3]; 12.5 mM sodium acetate, 37° C., 1 hour)?
**A.** exhibited candidacidal activity

**Q.** And the candidacidal activity ([3]; 62.25 and 93.75 mM salt)?
**A.** reduced activity

**Q.** And the candidacidal activity ([3]; pH 4.5)?
**A.** activity was lost

**Q.** What about the candidacidal activity ([3]; pH 6 and 8) of the same substance?
**A.** exhibited candidacidal activity

**Q.** And the “susceptibility of och1Δ mutant to peptide” value (och1Δ mutant strain)?
**A.** resistant

**Q.** What about the “concentration causing 50% reduction in the metabolic activity (50% RMA)” value [4] of the same substance?
**A.** > 300 µg/mL

**Q.** And the “intracellular ROS formation” value [5]?
**A.** induced intracellular ROS formation

**Q.** What about the “anti-Candida activity, dependence on concentration and time” value [6] of the same substance?
**A.** time-dependent and dose-dependent
